Measurements from ChEMBL document CHEMBL5390284, “Shikimate-Derived Meroterpenoids from the Ascidian-Derived Fungus Amphichorda felina SYSU-MS7908 and Their Anti-Glioma Activity” (J Nat Prod, 2023).
The source made the active and inactive calls.

Legend:
U-251 = assay: Antiproliferative activity against human U-251 cells assessed as inhibition of cell growth at 100 uM incubated for 48 hrs by MTT assay; assay type: functional
U-87 MG = assay: Antiproliferative activity against human U-87 MG cells assessed as inhibition of cell growth at 100 uM incubated for 48 hrs by MTT assay; assay type: functional; settings: U-87MG ATCC
T98G = assay: Antiproliferative activity against human T98G cells assessed as inhibition of cell growth at 100 uM incubated for 48 hrs by MTT assay; assay type: functional, cell-based

Measured: Activity

CC1(C)CC(=O)C2=C(O1)C(=O)[C@@]1(O)C[C@@H](O)C(C)(C)O[C@H]1[C@@H]2O
inactive: U-251 | U-87 MG | T98G

CC(=O)O[C@@H]1C[C@]23O[C@H]2[C@]2(O)CC(C)=CC(=O)C2=C[C@@H]3OC1(C)C
inactive: U-251 | U-87 MG | T98G

CC(=O)O[C@@H]1Cc2c(cc3c(c2O)OC(C)(C)CC3=O)OC1(C)C
inactive: U-251 | U-87 MG | T98G

CC1(C)CC(=O)c2cc3c(c(Cl)c2O1)C[C@@H](O)C(C)(C)O3
inactive: U-251 | U-87 MG | T98G
